Assay results taken from patent publication US20260356830A1, “COMPOUNDS FOR MODULATING RET PROTEIN” (Bristol-Myers Squibb Company, priority 2022, published 2026).

Biological target: T1, CCDC6-RET (Homo sapiens, UniProt P07949+Q16204+Q96SW2)
T1 construct: CCDC6 (natural N-terminal fusion partner, UniProt Q16204); endogenous in cells; host or cells: TPC-1 (parental, papillary thyroid carcinoma)
Experiment: Cellular RET degradation, AlphaLISA, TPC-1 cell line
Assay type: cell-based
Details: for Dmax: TPC1, human, 24 h, read-out: Cell Density TPC-1/CCDC6-RET Ymax %; for DC50: read-out: Cell Density TPC-1/CCDC6-RET DC50, half-maximal degradation concentration, TPC-1 (CCDC6-RET), 24 hrs
Summary of the method: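 TPC-1 papillary thyroid carcinoma cells (endogenous CCDC6-RET) in DMEM with 2% FBS, compound-treated 24 h at 37 °C. RET in lysates quantified by AlphaLISA luminescence, normalized to media-only and DMSO wells; DC50 and maximal degradation from 4-parameter logistic fit.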

T1 sequence (Q16204+P07949 fused): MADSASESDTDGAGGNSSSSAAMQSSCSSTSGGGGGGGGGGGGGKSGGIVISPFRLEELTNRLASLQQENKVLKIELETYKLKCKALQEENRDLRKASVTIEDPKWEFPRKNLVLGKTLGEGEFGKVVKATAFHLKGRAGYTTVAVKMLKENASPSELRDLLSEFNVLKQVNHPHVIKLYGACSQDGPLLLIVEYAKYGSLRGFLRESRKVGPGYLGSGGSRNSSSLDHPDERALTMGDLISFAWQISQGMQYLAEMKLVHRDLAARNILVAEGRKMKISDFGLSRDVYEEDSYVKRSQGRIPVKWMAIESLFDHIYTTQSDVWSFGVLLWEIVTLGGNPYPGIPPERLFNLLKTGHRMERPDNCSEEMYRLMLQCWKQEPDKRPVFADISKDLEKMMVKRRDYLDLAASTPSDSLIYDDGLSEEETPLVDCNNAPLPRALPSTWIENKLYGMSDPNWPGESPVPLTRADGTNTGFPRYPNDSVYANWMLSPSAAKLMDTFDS
T1 sequence (Q96SW2 whole entry, the tested form may be a part): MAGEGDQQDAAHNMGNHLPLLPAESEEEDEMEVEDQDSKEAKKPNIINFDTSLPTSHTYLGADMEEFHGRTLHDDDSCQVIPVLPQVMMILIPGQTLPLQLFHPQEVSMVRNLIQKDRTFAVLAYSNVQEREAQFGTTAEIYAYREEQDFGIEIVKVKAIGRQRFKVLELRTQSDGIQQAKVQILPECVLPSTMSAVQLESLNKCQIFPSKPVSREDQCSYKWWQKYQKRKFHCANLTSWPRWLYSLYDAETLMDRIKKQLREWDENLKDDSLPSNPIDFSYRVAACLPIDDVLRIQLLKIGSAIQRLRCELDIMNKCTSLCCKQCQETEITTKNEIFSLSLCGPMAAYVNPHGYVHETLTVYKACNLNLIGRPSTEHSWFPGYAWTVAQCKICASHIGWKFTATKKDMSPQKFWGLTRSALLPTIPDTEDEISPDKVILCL
T1 sequence (Q16531 whole entry partner, the tested form may be a part): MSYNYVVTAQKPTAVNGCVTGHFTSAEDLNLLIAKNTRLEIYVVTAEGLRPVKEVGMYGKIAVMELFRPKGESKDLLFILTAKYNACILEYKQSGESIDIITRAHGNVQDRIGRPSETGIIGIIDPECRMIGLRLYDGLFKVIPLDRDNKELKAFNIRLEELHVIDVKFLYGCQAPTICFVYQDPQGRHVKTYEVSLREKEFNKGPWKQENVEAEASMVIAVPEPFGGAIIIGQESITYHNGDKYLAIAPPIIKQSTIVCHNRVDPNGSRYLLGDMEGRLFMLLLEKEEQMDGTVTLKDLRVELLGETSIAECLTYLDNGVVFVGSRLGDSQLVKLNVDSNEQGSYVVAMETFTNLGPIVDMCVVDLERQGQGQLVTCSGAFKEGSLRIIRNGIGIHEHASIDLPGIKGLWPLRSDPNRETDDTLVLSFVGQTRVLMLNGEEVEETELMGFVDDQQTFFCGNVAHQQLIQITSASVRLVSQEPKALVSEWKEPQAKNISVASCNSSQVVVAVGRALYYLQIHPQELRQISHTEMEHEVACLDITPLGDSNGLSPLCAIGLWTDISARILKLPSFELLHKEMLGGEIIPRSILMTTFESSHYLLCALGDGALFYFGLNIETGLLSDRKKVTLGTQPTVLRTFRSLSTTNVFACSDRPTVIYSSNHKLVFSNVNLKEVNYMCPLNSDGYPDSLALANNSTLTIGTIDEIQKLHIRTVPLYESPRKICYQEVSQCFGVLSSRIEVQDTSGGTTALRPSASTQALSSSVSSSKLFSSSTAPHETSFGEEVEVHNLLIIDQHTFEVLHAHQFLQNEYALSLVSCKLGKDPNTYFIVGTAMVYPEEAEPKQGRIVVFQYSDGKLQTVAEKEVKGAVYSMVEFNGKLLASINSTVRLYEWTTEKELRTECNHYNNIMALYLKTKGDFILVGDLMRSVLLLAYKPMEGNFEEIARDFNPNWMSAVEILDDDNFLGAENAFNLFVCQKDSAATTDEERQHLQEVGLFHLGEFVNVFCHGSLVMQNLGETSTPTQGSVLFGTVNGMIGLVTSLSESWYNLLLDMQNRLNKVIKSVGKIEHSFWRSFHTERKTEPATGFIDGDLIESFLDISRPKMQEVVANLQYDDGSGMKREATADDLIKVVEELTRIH

SMILES	Dmax [%]	DC50 [nM]
CCOc1cc(-c2ccc(N3CCC(CN4CCC5(CCC(CC(=O)N6CCN(c7ccc8c(c7)CN(C7CCC(=O)NC7=O)C8=O)CC6)CC5)CC4)(NC(=O)c4cc(F)ccc4F)CC3)nc2)c2c(C#N)cnn2c1 (centres unmarked) [Example 124, N-[1-(5-{3-cyano-6-ethoxypyrazolo[1,5-a]pyridin-4-yl}pyridin-2-yl)-4-{[9-(2-{4-[2-(2,6-dioxopiperidin-3-yl)-1-oxo-2,3-dihydro-1H-isoindol-5-yl]piperazin-1-yl}-2-oxoethyl)-3-azaspiro[5.5]undecan-3-yl]methyl}piperidin-4-yl]-2,5-difluorobenzamide]	> 90	< 2
CCOc1cc(-c2ccc(N3CCC(CN4CCN(C(=O)CCCCCCN5CCN(c6ccc7c(c6)CN(C6CCC(=O)NC6=O)C7=O)CC5)CC4)CC3)nc2)c2c(C#N)cnn2c1 (centres unmarked) [Example 125, 4-[6-(4-{[4-(7-{4-[2-(2,6-dioxopiperidin-3-yl)-1-oxo-2,3-dihydro-1H-isoindol-5-yl]piperazin-1-yl}heptanoyl)piperazin-1-yl]methyl}piperidin-1-yl)pyridin-3-yl]-6-ethoxypyrazolo[1,5-a]pyridine-3-carbonitrile]	> 90	10 to 100
CCOc1cc(-c2ccc(N3CCC(CN4CCN(C(=O)CCN5CCC(c6ccc7c(c6)C(=O)N(C6CCC(=O)NC6=O)C7)CC5)CC4)CC3)nc2)c2c(C#N)cnn2c1 (centres unmarked) [Example 126, 4-[6-(4-{[4-(3-{4-[2-(2,6-dioxopiperidin-3-yl)-3-oxo-2,3-dihydro-1H-isoindol-5-yl]piperidin-1-yl}propanoyl)piperazin-1-yl]methyl}piperidin-1-yl)pyridin-3-yl]-6-ethoxypyrazolo[1,5-a]pyridine-3-carbonitrile]	60 to 90	100 to 2000
CCOc1cc(-c2ccc(N3CCC(C)(CN4CCN(C(=O)CCCCCCN5CCN(c6ccc7c(c6)CN(C6CCC(=O)NC6=O)C7=O)CC5)CC4)CC3)nc2)c2c(C#N)cnn2c1 (centres unmarked) [Example 128, 4-[6-(4-{[4-(7-{4-[2-(2,6-dioxopiperidin-3-yl)-1-oxo-2,3-dihydro-1H-isoindol-5-yl]piperazin-1-yl}heptanoyl)piperazin-1-yl]methyl}-4-methylpiperidin-1-yl)pyridin-3-yl]-6-ethoxypyrazolo[1,5-a]pyridine-3-carbonitrile]	60 to 90	100 to 2000
CCOc1cc(-c2ccc(N3CCC(C)(CN4CCN(C(=O)CCN5CCC(c6ccc7c(c6)CN(C6CCC(=O)NC6=O)C7=O)CC5)CC4)CC3)nc2)c2c(C#N)cnn2c1 (centres unmarked) [Example 129, 4-[6-(4-{[4-(3-{4-[2-(2,6-dioxopiperidin-3-yl)-1-oxo-2,3-dihydro-1H-isoindol-5-yl]piperidin-1-yl}propanoyl)piperazin-1-yl]methyl}-4-methylpiperidin-1-yl)pyridin-3-yl]-6-ethoxypyrazolo[1,5-a]pyridine-3-carbonitrile]	60 to 90	100 to 2000
CCOc1cc(-c2ccc(N3CCC(CN(C)C(=O)CCCCN4CCC(c5ccc6c(c5)CN(C5CCC(=O)NC5=O)C6=O)CC4)(NC(=O)c4cc(F)ccc4F)CC3)nc2)c2c(C#N)cnn2c1 (centres unmarked) [Example 139, N-[1-(5-{3-cyano-6-ethoxypyrazolo[1,5-a]pyridin-4-yl}pyridin-2-yl)-4-[(5-{4-[2-(2,6-dioxopiperidin-3-yl)-1-oxo-2,3-dihydro-1H-isoindol-5-yl]piperidin-1-yl}-N-methylpentanamido)methyl]piperidin-4-yl]-2,5-difluorobenzamide]	> 90	10 to 100
CCOc1cc(-c2ccc(N3CCC(CN(C)C(=O)CCCCCCN4CCC(c5ccc6c(c5)C(=O)N(C5CCC(=O)NC5=O)C6)CC4)(NC(=O)c4cc(F)ccc4F)CC3)nc2)c2c(C#N)cnn2c1 (centres unmarked) [Example 146, N-[1-(5-{3-cyano-6-ethoxypyrazolo[1,5-a]pyridin-4-yl}pyridin-2-yl)-4-[(7-{4-[2-(2,6-dioxopiperidin-3-yl)-3-oxo-2,3-dihydro-1H-isoindol-5-yl]piperidin-1-yl}-N-methylheptanamido)methyl]piperidin-4-yl]-2,5-difluorobenzamide]	> 90	10 to 100
CCOc1cc(-c2ccc(N3CCC(NC(=O)c4cc(F)ccc4F)(C(=O)NCCCCCCNc4ccc(N5CCC(=O)NC5=O)cc4)CC3)nc2)c2c(C#N)cnn2c1 [Example 148, 1-(5-{3-cyano-6-ethoxypyrazolo[1,5-a]pyridin-4-yl}pyridin-2-yl)-4-(2,5-difluorobenzamido)-N-(6-{[4-(2,4-dioxo-1,3-diazinan-1-yl)phenyl]amino}hexyl)piperidine-4-carboxamide]	60 to 90	2 to 10

Next, values leading:

Dmax [%]	DC50 [nM]	SMILES
> 90	2 to 10	CCOc1cc(-c2ccc(N3CCC(CN(C)C(=O)CCCCCCN4CCN(c5ccc6c(c5)CN(C5CCC(=O)NC5=O)C6=O)CC4)(NC(=O)c4cc(F)ccc4F)CC3)nc2)c2c(C#N)cnn2c1 (centres unmarked) [Example 137, N-[1-(5-{3-cyano-6-ethoxypyrazolo[1,5-a]pyridin-4-yl}pyridin-2-yl)-4-[(7-{4-[2-(2,6-dioxopiperidin-3-yl)-1-oxo-2,3-dihydro-1H-isoindol-5-yl]piperazin-1-yl}-N-methylheptanamido)methyl]piperidin-4-yl]-2,5-difluorobenzamide]
> 90	2 to 10	CCOc1cc(-c2ccc(N3CCC(CN(C)C(=O)CCCCCCN4CCC(c5ccc6c(c5)CN(C5CCC(=O)NC5=O)C6=O)CC4)(NC(=O)c4cc(F)ccc4F)CC3)nc2)c2c(C#N)cnn2c1 (centres unmarked) [Example 140, N-[1-(5-{3-cyano-6-ethoxypyrazolo[1,5-a]pyridin-4-yl}pyridin-2-yl)-4-[(7-{4-[2-(2,6-dioxopiperidin-3-yl)-1-oxo-2,3-dihydro-1H-isoindol-5-yl]piperidin-1-yl}-N-methylheptanamido)methyl]piperidin-4-yl]-2,5-difluorobenzamide]
> 90	2 to 10	CCOc1cc(-c2ccc(N3CCC(CN(C)C(=O)CCCCCCN4CCN(c5ccc6c(c5)C(=O)N(C5CCC(=O)NC5=O)C6)CC4)(NC(=O)c4cc(F)ccc4F)CC3)nc2)c2c(C#N)cnn2c1 (centres unmarked) [Example 143, N-[1-(5-{3-cyano-6-ethoxypyrazolo[1,5-a]pyridin-4-yl}pyridin-2-yl)-4-[(7-{4-[2-(2,6-dioxopiperidin-3-yl)-3-oxo-2,3-dihydro-1H-isoindol-5-yl]piperazin-1-yl}-N-methylheptanamido)methyl]piperidin-4-yl]-2,5-difluorobenzamide]
60 to 90	2 to 10	CCOc1cc(-c2ccc(N3CCC(CN(C)C(=O)CCCCN4CCC(c5ccc6c(c5)C(=O)N(C5CCC(=O)NC5=O)C6)CC4)(NC(=O)c4cc(F)ccc4F)CC3)nc2)c2c(C#N)cnn2c1 (centres unmarked) [Example 145, N-[1-(5-{3-cyano-6-ethoxypyrazolo[1,5-a]pyridin-4-yl}pyridin-2-yl)-4-[(5-{4-[2-(2,6-dioxopiperidin-3-yl)-3-oxo-2,3-dihydro-1H-isoindol-5-yl]piperidin-1-yl}-N-methylpentanamido)methyl]piperidin-4-yl]-2,5-difluorobenzamide]
60 to 90	10 to 100	CCOc1cc(-c2ccc(N3CCC(C)(CN4CCN(C(=O)CCN5CCC(c6ccc7c(c6)C(=O)N(C6CCC(=O)NC6=O)C7)CC5)CC4)CC3)nc2)c2c(C#N)cnn2c1 (centres unmarked) [Example 147, 4-[6-(4-{[4-(3-{4-[2-(2,6-dioxopiperidin-3-yl)-3-oxo-2,3-dihydro-1H-isoindol-5-yl]piperidin-1-yl}propanoyl)piperazin-1-yl]methyl}-4-methylpiperidin-1-yl)pyridin-3-yl]-6-ethoxypyrazolo[1,5-a]pyridine-3-carbonitrile]
